Like-named read-outs stand apart in the source and are kept apart here. Marks after values point to notes of the source that are not given here.
Experiments:
[1] = tested on: Staphylococcus aureus CECT 86 (ATCC 12600); experiment: MIC microdilution, S. aureus; format: cell-based; conditions: planktonic cells; for S. aureus MIC50: growth inhibited at 50%; for S. aureus MIC100: lowest concentration completely inhibiting growth
Method: (§1) Wild-type P. aeruginosa PAO1 strain CECT 4122 (ATCC 15692) and S. aureus CECT 86 (ATCC 12600) were obtained from the Spanish Type Culture Collection (CECT). All strains were routinely cultivated in TSB medium (Sharlab, Spain) at 37 °C. MIC assays were determined by the microdilution method using TSB broth following the method described by the Clinical and Laboratory standards Institute.[94] In brief, compounds were diluted in a 96-well microtiter plate (tissue culture-treated polystyrene; […]

HEK293 cells = experiment: MTT cytotoxicity assay, HEK293; format: cell-based, human; conditions: for SF (selectivity factor): IC50(HEK293)/IC50(A2780); for IC50: MTT assay, 72 h exposure, noncancerous cells
[2] = Cyclic voltammetry, redox potentials; format: physicochemical; conditions: first reduction step; for E1/2 Red1 (DMSO) vs NHE / E1/2 Red1 (MeOH) vs NHE: vs NHE (in brackets)
Method: To assess the redox properties of 1-6, detailed electrochemical and spectroscopic studies in various solvents were performed using cyclic voltammetry as well as EPR-spectroelectrochemistry. Additionally, the UV-vis spectra of 1-5 were measured (Figure S8). […] The second reduction step occurred at -1.8 V versus Fc^+/Fc (-1.16 V vs NHE) and was less reversible, indicating a ligand-based reduction. […] In aqueous solutions, the reduction potentials shifted to the less negative values, and reduction was less reversible as shown for 2 in Figure S10. […] Cyclic voltammetric experiments were performed as described previously.[46] The cyclic voltammograms were measured in the cathodic region in different solvents (DMSO, methanol, DMSO/H2O). The analytical purity grade LiClO4 (Sigma-Aldrich) and distilled and deionized water were used for preparation of 1 mM aqueous solutions of the investigated complexes 1-6. EPR spectra were recorded with the EMX plus. In situ UV-vis-NIR spectroelectrochemical measurements were performed on a spectrometer (Avantes, Model AvaSpec-2048x14-USB2 in the spectroelectrochemical cell kit ([…]3)) with the Pt-microstructured honeycomb working electrode, purchased from Pine Research Instrumentation. The cell was positioned in the CUV-UV Cuvette Holder (Ocean Optics) connected to the diode-array UV-vis-NIR spectrometer by optical fibers. UV-vis-NIR spectra were processed using the AvaSoft 7.7 software package. Halogen and deuterium lamps were used as light sources (Avantes, Model AvaLight-DH-S-BAL). The in situ EPR spectroelectrochemical experiments were carried out under an argon atmosphere in the EPR flat cell equipped with a large platinum mesh working electrode. The freshly prepared solutions were carefully purged with argon and the electrolytic cell was polarized in the galvanostatic mode directly in the cylindrical EPR cavity TM-110 (ER 4103 TM), and the EPR spectra were measured in situ.

A2780cisR cells = experiment: MTT cytotoxicity assay, A2780cisR; format: cell-based, human; conditions: for RF (resistance factor): IC50(A2780cisR)/IC50(A2780); for IC50: MTT assay, 72 h exposure, cisplatin-resistant A2780cisR, read-out: IC50 A2780cis
A2780 cells [3] = experiment: MTT cytotoxicity assay, A2780; format: cell-based, human
Solubility in water = format: physicochemical; conditions: sterile water stock solutions
Method: Human ovarian carcinoma cells A2780 and A2780cisR and human embryonic kidney HEK293 were obtained from ATCC. A2780 and A2780cisR cells were cultured in RPMI 1640 medium containing 10% FBS. HEK293 were cultured in DMEM medium containing 10% FBS. All cells were grown in tissue culture 25 cm^2 flasks (BD Biosciences, Singapore) at 37 °C in a humidified atmosphere of 95% air and 5% CO2. All drug stock solutions were prepared in sterile water. The amount of Cu was determined by ICP–OES.

A2780 cells [4] = experiment: Cellular accumulation of Cu by ICP-MS; format: cell-based, human; conditions: 24 h exposure
From the text: The ability of anticancer drugs to penetrate biological membranes, tissues, and barriers underlies their biological, pharmacokinetic, and metabolic properties. These properties can be predicted by calculating physicochemical characteristics of drug candidates using molecular descriptors.[30] […] The results are shown in Table S7 in the Supporting Information. On the basis of the calculated physicochemical parameters, we determined if novel compounds belonged to the drug-like chemical space, which is commonly defined by the well-known Lipinski rule, or to the known drug space (KDS), which includes all small compounds in medical use.[31] […] Following the calculations, we determined the lipophilicity of all compounds experimentally (log D7.4, Tables 1 and 2). It is known that cancer cells accumulate hydrophilic compounds to a smaller extent relative to hydrophobic compounds, thereby affecting their activity. […] As expected, proligands were more lipophilic than the corresponding Cu(II) species, which are positively charged at physiological pH (Figure 3b). […] The lipophilicity of 2–5 increased in the following order 4 < 2 < 3 < 5, and correlated well with their cytotoxicity in cancer cells, with the exception of 3. Subsequently, we determined the total cellular accumulation of Cu in A2780 cells by ICP–MS upon 24 h exposure to 1–6 in comparison with CuCl2 (Table 2). […] The accumulation increased in the order 6 < 1 < 3 < 4 < 2 < 5.
Cellular accumulation of 1–6 was determined in A2780 cells. Cells were seeded into Cellstar 6-well plates (Greiner Bio-one) at a density of 60 × 10^4 cells/well (2 mL per well). After the cells were allowed to resume exponential growth for 24 h, they were exposed to 1–6 at 1 μM for 24 h at 37 °C. The cells were washed twice with 1 mL of PBS and lysed with RIPA lysis buffer for 5–10 min at 4 °C. The cell lysates were scraped from the wells and transferred to separate 1.5 mL microtubes. The supernatant was then collected after centrifugation (13 000 rpm, 4 °C for 15 min) and total protein content of each sample was quantified via Bradford’s assay. Cell lysates were transferred to 2 mL glass vials and then digested with ultrapure 65% HNO3 at 100 °C for 24 h. The resulting solution was diluted to 1 mL (2–4% v/v HNO3) with ultrapure Milli-Q water. Cu content of each sample was quantified by ICP–MS. In was used as an internal standard. Cu and In were measured at m/z 64 and m/z 115, respectively. Metal standards for calibration curve (0, 0.5, 1, 2, 5, 10, 20, and 40 ppb) were freshly prepared before each measurement. All readings were made in triplicates in He mode. For temperature-dependent cellular accumulation experiments, A2780 cells were seeded into 35 n 10 mm tissue culture plates at a density of 60 0 10^4 cells/plate. After the cells were allowed to resume exponential growth for 24 h, they were exposed to 2 at 3 μM for 10, 30, 60, and 120 min at 37 and 4 °C. The subsequent analysis was performed as described above. For energy-dependent experiments, A2780 cells were seeded into 35 5 10 mm tissue culture plates at a density of 1 0 10^6 cells/plate. After the cells were allowed to resume exponential growth for 24 h, they were preincubated with oligomycin (5 μM) for 1 or 4 h or with cycloheximide (100 μM) for 4 h and further co-incubated with 3 μM of 2 at 37 °C. To induce total starvation, after the cells were allowed to resume exponential growth for 24 h, RPMI media was replaced with HBSS, and cells were preincubated in HBSS for 1 h and further incubated with 3 μM of 2 for 1 h at 37 °C. The subsequent analysis was performed as described above.

[5] = n-octanol/water distribution coefficient, shake-flask; format: physicochemical; conditions: n-octanol/buffered aqueous solution, pH 7.40, UV-vis
Method: The titrations were carried out under a nitrogen atmosphere.

[6] = tested on: Pseudomonas aeruginosa PAO1 CECT 4122 (ATCC 15692); experiment: MIC microdilution, P. aeruginosa; format: cell-based; conditions: planktonic cells; for P. aeruginosa MIC50: growth inhibited at 50%; for P. aeruginosa MIC100: lowest concentration completely inhibiting growth
Method: as §1

A2780 cells [7] = experiment: Annexin V/PI apoptosis assay; format: cell-based, human; conditions: A2780, concentration corresponding to Cu content in 2 at 2IC50
From the text: To elucidate if observed cytotoxicity of new compounds described in this study was a result of apoptosis induction, we conducted Annexin V/PI apoptosis assay. In brief, fluorochrome-labeled Annexin V reagent is used for detection of membrane phosphatidylserine (PS), which translocates to the cellular surface from the inner side of plasma membrane in the event of early apoptosis. Simultaneously, PI is used for detection of later stages of apoptosis or necrosis, which are characterized by loss of membrane integrity and accumulation of PI inside the cells. […] Results are illustrated in Figure 9. Upon incubation of A2780 cells with increasing concentrations of HL^2 and 2, the dose-dependent increase of apoptotic cells was observed.
A2780 cells were seeded into Cellstar 12-well plates (Greiner Bio-One) at a density of 20 × 10^4 cells/well (1 mL per well). The cells were allowed to resume exponential growth for 24 h and subsequently they were exposed to HL^2 and 2 at different concentrations for 24 h. After the supernatant solution was collected in 1.5 mL microtubes, the cells were washed with 100 μL of trypsin, which was combined with the supernatant. Subsequently, cells were trypsinized with 200 μL of trypsin for 5 min at 37 °C, 5% CO2, washed with 200 μL of PBS, and combined with the supernatant. The cells were centrifuged at 2.5 × 10^3 rpm for 5 min and the pellets were washed once with PBS and resuspended in 500 μL of Annexin V binding buffer and stained with Annexin V-FITC and PI reagents. The fluorescence was immediately analyzed by flow cytometry. The resulting dot blots were acquired from 10 000 events and quantified using Flowjo software (Flowjo LLC, Ashland, OR, USA).

mouse R2 RNR protein = molecular target: T1, mouse R2 RNR protein (Mus musculus, UniProt P11157); set-up: method as in PMID 21955844; conditions: mouse R2, after 5 min, same experimental conditions; cited from earlier work
T1 construct: made in house; host or cells: Escherichia coli
T1 sequence (P11157 1-390): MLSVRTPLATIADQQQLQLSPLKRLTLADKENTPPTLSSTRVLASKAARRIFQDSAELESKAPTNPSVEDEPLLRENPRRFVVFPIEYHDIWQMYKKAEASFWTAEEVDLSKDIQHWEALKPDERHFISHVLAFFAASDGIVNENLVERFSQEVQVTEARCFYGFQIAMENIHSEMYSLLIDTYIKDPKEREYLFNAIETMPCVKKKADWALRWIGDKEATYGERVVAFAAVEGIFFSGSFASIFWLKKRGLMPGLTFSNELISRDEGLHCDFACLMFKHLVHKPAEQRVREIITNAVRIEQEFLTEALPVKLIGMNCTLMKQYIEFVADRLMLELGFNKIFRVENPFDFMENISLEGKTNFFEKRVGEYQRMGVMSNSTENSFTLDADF

SMILES	S. aureus MIC50 [1] [µg/mL]	S. aureus MIC100 [1] [µg/mL]	SF (selectivity factor) (HEK293 cells)	IC50 (HEK293 cells) [nM]	E1/2 Red1 (DMSO) vs Fc+/Fc [2]	E1/2 Red1 (DMSO) vs NHE [2]	E1/2 Red1 (MeOH) vs Fc+/Fc [2]	E1/2 Red1 (MeOH) vs NHE [2]	RF (resistance factor) (A2780cisR cells)	IC50 (A2780cisR cells) [nM]	IC50 (A2780 cells [3]; 72 h exposure) [nM]	solubility in water (Solubility in water) [µM]	cellular accumulation A2780 (A2780 cells [4]; 1 μM) [nmol Cu/mg protein]	log D7.4 [5]	P. aeruginosa MIC50 [6]	P. aeruginosa MIC100 [6]	other results
NC(=NN=Cc1ccc(CN2CCOCC2)cn1)[S][Cu][Cl] [complex 1, [Cu(L^1)Cl]]	100	>500	7.3	16000 ± 2000	–0.81 V	–0.17 V	–0.57 V	+0.07 V	5.9	13000 ± 4000	2200 ± 100	≤ 2000	0.63 ± 0.09	–0.81 ± 0.04	NA (NA denotes no antibacterial activity detected (>500 μg/mL))	NA (NA denotes no antibacterial activity detected (>500 μg/mL))	
[Cl][Cu][Cl] [CuCl2, reference compound]			2.3	187000 ± 37000					1.0	82000 ± 3000	83000 ± 12000						induction of apoptosis (A2780 cells [7]): no induction of apoptosis was detected; cellular accumulation A2780 (A2780 cells [4]; 2.5 μM): 0.17 ± 0.05 ^f nmol Cu/mg protein
[Cl][Cu][S]C(=NN=Cc1ccc(CN2CCOCC2)cn1)N1CCCC1 [complex 3, [Cu(L^3)Cl]]	3	10	3.0	780 ± 200	–0.80 V	–0.16 V	–0.49 V	+0.15 V	2.3	600 ± 50	260 ± 20	300	2.2 ± 0.6	+0.86 ± 0.02	100 µg/mL	400 µg/mL	
NC(=S)N/N=C/c1ncccc1N [triapine, 3-amino-2-pyridinecarboxaldehyde TSC, reference compound]			0.6														IC50 (HEK293 cells; Homo sapiens, HEK293): 390 ± 50 nM; tyrosyl radical loss (mouse R2 RNR protein): 100%; IC50 (A2780cisR cells; Homo sapiens): 1100 ± 100 nM; IC50 (A2780 cells [3]; Homo sapiens, A2780, 72 h exposure): 670 ± 220 nM
